# In ChEMBL document CHEMBL1201862, “PubChem BioAssay data set” (2004):
# Activity calls are given as the source filed them.
# Tests used:
# [1] = loss of viability in HepG2 cells – cell-based, CellTiter-Glo, cherry-picked, cytotoxicity control for Shn3 inhibitor project, dose response (AID 624134); type: functional
# [2] = decrease of insulin promoter-GFP reporter – imaging, high-content screening, mouse beta cells (AID 1628); type: functional; settings: MIN6
# [3] = reduction of Shn3 3'UTR-driven luciferase in osteoblasts – cell-based, Clone20 osteoblasts, firefly luciferase, cherry-picked, dose response (AID 624132); type: functional;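 further: firefly luciferase luminescence from reporter carrying the Shn3 3'UTR in osteoblasts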
# [4] = non-specific 3'UTR reporter inhibition in Clone20-Shn3RL – cell-based, Renilla luciferase, cherry-picked, counter-screen for Shn3 inhibitor project, dose response (AID 624133); type: functional
# [5] = Shn3 3'UTR reporter signal decrease – cell-based, Clone20 osteoblasts, firefly luciferase, cherry-pick, set 2, Schnurri-3 inhibitor project, dose response (AID 720490); type: functional;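 further: actives lower the luminescence signal as inhibitors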
# [6] = MIN6 cell viability loss – mouse insulinoma, cytotoxicity control, dose response (AID 2122); type: functional;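 further: confirmatory high-throughput counterscreen run to flag cytotoxic compounds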
# [7] = biological target: Paired box protein Pax-8 (Homo sapiens, UniProt Q06710); test: PAX8 transcriptional activity inhibition in RMG-I – RMG-I cells, luciferase, cherry-pick, dose response (AID 687027); type: functional, cell-based;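 further: luciferase reporter driven by Pax8 target thyroperoxidase promoter measured by SteadyGlo luminescence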
# [8] = PAX5 cellular inhibition readout – cell-based, plate reader, dry powder samples, selectivity assay for PAX8 inhibitor project, dose response (AID 743047); type: functional;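 further: HEK293 cells carrying a Pax5 driven CD19 promoter luciferase reporter; potency of inhibitors that lower reporter luminescence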
# [9] = OV-90 cell viability loss – plate reader, dry powder, SA8, PAX8 inhibitor project, dose response (AID 743149); type: functional, cell-based
# [10] = inhibitors acting on PAX2 in cells – cell-based, plate reader, dry powder samples, selectivity assay for PAX8 inhibitor project, dose response (AID 743048); type: functional;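 further: HEK293 cells carrying a WT1 promoter luciferase reporter driven by expressed Pax2; potency is for inhibition of Pax2 driven reporter signal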
# [11] = PAX8-dependent cell viability loss – plate reader, dry powder, dose response (AID 743049); type: functional, cell-based
# [12] = COV362 cell viability loss – plate reader, dry powder, SA12, cytotoxicity control for PAX8 inhibitor project, dose response (AID 743144); type: functional, cell-based
# [13] = biological target: Disintegrin and metalloproteinase domain-containing protein 17 (Homo sapiens, UniProt P78536); test: exosite inhibitors of ADAM17, dose response, biochemical (AID 743260)
# [14] = inhibition of ADAM10 peptide cleavage – biochemical, FRET peptide substrate, recombinant human ADAM10, selectivity assay for ADAM17 exosite inhibitor project, dose response (AID 743259);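 further: ADAM10 enzyme cleaving a FRET peptide substrate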
# [15] = biological target: T1, Caspase-6 (Homo sapiens, UniProt P55212); test: inhibition of CASP6 peptide cleavage – biochemical, VEID-R110 fluorescence, cherry-pick, dose response (AID 720632)
# T1 sequence (P55212 whole entry): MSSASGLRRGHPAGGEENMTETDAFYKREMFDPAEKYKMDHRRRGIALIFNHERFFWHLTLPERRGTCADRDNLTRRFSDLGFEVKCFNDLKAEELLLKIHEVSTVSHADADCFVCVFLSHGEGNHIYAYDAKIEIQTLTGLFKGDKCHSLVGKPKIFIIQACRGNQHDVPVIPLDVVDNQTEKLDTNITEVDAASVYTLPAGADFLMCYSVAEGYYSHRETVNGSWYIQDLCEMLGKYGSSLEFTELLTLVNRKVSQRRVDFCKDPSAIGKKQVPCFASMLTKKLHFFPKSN
# [16] = biological target: Prothrombin (Homo sapiens, UniProt P00734); test: Thrombin 1536 HTS Dose Response Confirmation. [Related pubchem assays: 1046 (Thrombin 1536 HTS; hits were confirmed in this assay)]; type: functional
# [17] = biological target: T2, Oxysterols receptor LXR-beta (Homo sapiens, UniProt P55055); type: functional, cell-based;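 further: Cell-based luminescence dose-response assay of agonist activity at LXR, run as a confirmatory counterscreen to a daf-12 agonist screen; agonist potency from rising luciferase signal of a Gal4-LXR reporter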
# T2 sequence (P55055 whole entry): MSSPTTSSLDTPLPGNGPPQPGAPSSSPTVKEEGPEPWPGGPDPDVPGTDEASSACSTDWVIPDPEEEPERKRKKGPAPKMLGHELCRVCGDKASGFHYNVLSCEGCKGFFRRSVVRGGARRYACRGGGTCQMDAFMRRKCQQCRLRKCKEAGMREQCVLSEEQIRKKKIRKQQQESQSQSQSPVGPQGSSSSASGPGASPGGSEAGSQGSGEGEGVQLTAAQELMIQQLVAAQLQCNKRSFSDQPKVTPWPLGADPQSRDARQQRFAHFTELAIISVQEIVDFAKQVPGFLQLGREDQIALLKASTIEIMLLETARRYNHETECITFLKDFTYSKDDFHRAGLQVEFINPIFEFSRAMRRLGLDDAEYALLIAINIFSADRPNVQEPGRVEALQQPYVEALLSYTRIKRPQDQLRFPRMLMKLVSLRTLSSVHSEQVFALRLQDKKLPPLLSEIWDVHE
# [18] = cells
# [19] = general cell-killing toxicity readout – plate reader, dry powder samples, cytotoxicity control for PAX8 inhibitor project, dose response (AID 743021); type: functional, cell-based
# [20] = biological target: T3, DNA repair protein RAD52 homolog (Homo sapiens, UniProt P43351); type: functional, biochemical
# T3 sequence (P43351 whole entry): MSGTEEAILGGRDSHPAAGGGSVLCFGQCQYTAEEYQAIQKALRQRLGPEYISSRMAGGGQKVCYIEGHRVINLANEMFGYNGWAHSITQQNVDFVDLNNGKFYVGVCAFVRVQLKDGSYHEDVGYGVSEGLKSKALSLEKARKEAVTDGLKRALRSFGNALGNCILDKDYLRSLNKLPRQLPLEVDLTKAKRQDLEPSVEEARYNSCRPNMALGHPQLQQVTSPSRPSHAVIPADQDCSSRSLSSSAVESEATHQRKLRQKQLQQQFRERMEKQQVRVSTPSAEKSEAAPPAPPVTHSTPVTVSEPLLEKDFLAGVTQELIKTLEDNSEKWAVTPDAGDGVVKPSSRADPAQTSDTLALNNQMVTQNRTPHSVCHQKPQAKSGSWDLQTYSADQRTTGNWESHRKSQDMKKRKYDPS
# [21] = biological target: Melanocortin receptor 4 (Homo sapiens, UniProt P32245); type: functional, cell-based;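 further: Cell-based assay with luminescence read-out, confirmatory dose-response testing for agonist activity of biased ligands at MC4R; human U2OS cells with tagged receptor and beta-arrestin; potency of agonists that increase receptor coupling to beta-arrestin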
# [22] = biological target: T2, Oxysterols receptor LXR-beta; test: LXR agonists, Gal4 luciferase reporter, dose response, counter-screen for ssDAF-12 agonist project, cell-based, luminescence, HEK293, S. stercoralis campaign (AID 720737); type: functional; settings: read-out: IC50 (the source's name)
# [23] = Luminescence-based cell-based high throughput dose response assay to identify activators of the DAF-12 from the parasite S. stercoralis (ssDAF-12).; type: functional
# [24] = RKO cell viability reduction, dose response, CellTiter-Glo luminescence (AID 1117322); type: functional
# [25] = cytotoxicity toward Colo320 cells – cell-based, CellTiter-Glo luminescence, IC50, dose response (AID 1117334); type: functional; settings: COLO 320
# [26] = cytotoxicity toward HCT116 cells – cell-based, CellTiter-Glo luminescence, IC50, dose response (AID 1117332); type: functional; settings: HCT-116
# [27] = Reduced DLD-1 viability, concentration-response, CellTiter-Glo luminescence (AID 1117352); type: functional
# [28] = CellTiter-Glo luminescence survival assay, SW480 colon tumor line, concentration-response curve, half-maximal inhibitory concentration (AID 1117338); type: functional
# [29] = SNU-C1 cell viability reduction, dose response, CellTiter-Glo luminescence (AID 1117323); type: functional, cell-based
# [30] = cytotoxicity toward HT-29 cells – cell-based, CellTiter-Glo luminescence, IC50, dose response (AID 1117330); type: functional
# [31] = viability loss of HPDE-C7K cells – cell-based, fluorescence, HTS, primary screen (AID 431); type: functional; settings: Homo sapiens
# [32] = HPDE-C7 pancreatic duct cell viability loss – fluorescence, HTS (AID 430); type: functional, cell-based; settings: Homo sapiens
# Sequence of Disintegrin and metalloproteinase domain-containing protein 17 (P78536 whole entry, the tested form may be a part): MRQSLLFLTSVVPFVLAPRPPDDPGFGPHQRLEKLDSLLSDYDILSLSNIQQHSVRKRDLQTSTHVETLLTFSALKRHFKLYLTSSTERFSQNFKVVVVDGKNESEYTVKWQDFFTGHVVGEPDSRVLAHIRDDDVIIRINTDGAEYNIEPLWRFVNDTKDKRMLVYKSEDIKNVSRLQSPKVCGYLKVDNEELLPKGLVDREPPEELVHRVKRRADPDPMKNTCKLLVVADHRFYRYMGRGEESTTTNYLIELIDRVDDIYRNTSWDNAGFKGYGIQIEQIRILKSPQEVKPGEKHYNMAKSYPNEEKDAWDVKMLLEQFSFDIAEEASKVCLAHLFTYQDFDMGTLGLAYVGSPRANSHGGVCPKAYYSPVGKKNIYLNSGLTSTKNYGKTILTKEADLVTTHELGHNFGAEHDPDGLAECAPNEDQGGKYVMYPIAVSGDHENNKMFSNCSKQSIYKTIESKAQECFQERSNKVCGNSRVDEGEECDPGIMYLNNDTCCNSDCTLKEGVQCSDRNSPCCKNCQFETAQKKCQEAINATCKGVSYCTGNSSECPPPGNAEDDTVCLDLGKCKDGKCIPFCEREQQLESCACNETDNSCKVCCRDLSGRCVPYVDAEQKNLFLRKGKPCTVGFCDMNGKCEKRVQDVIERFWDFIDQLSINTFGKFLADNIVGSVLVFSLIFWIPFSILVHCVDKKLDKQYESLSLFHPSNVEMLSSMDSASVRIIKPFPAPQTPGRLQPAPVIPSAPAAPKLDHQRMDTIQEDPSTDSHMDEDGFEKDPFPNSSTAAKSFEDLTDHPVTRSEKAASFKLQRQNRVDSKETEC
# Sequence of Paired box protein Pax-8 (Q06710 whole entry): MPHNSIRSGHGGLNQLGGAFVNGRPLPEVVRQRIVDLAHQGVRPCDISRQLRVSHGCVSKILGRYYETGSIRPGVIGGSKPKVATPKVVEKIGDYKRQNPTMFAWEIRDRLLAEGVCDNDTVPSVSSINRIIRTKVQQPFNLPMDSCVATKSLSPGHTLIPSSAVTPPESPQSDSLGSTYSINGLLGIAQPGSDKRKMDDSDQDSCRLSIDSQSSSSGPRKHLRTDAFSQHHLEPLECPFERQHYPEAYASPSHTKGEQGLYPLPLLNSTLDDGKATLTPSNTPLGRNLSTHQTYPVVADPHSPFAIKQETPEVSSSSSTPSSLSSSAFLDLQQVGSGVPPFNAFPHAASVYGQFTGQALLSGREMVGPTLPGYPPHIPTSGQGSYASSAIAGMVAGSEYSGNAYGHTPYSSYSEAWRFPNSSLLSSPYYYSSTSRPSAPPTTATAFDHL
# Sequence of Melanocortin receptor 4 (P32245 whole entry, the tested form may be a part): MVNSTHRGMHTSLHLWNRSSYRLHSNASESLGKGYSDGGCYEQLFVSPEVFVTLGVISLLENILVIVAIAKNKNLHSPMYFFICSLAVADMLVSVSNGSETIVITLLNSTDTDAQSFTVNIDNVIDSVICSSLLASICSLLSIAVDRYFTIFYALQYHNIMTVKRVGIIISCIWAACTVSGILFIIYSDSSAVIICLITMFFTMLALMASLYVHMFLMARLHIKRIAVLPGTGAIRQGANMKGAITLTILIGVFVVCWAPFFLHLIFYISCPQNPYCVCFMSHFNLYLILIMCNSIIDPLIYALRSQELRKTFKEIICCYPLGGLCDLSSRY
structure (smiles),measurement,setting,value
CCN(CC)c1ccc(NC(=O)CN2C(=O)CSc3ncccc32)c(C)c1,AC50,[1],31.9 µM (active)
same,IC50,[2],1.33 µM (active)
same,AC50,[3],1.78 µM (active)
same,AC50,[4],10.2 µM (active)
same,AC50,[5],2.17 µM (active)
same,IC50,[6],0.713 µM (active)
COc1cccc(C#Cc2ccc([C@H]3[C@@H](C#N)N(C(=O)c4ccccn4)[C@@H]3CO)cc2)c1,AC50,[7],15 µM (active)
same,AC50,[8],15.2 µM (active)
same,AC50,[9],> 70 µM (inactive)
same,AC50,[10],14.1 µM (active)
same,AC50,[11],47.3 µM (active)
same,AC50,[12],43.7 µM (active)
CCc1ccc(NC(=O)CO/N=C(\C)c2cc3ccccc3o2)cc1,IC50,[13],> 69.5 µM (inactive)
same,IC50,[14],> 69.5 µM (inactive)
COc1ccc(CCN2CC(C(=O)NCCc3ccc(C)cc3)CC2=O)cc1OC (stereo not given),AC50,[15],20.1 µM (active)
CCOC(=O)c1ccc(NC(=O)C2CCCN(S(=O)(=O)c3ccc(F)cc3)C2)cc1 (stereo not given),IC50,[13],> 69.5 µM (inactive)
same,IC50,[14],> 7.72 µM (active)
Nc1nc(CN2CCCCC2)cs1,IC50,[16],> 50 µM (not active)
COc1ccc2c(=O)c(-c3nc(C)cs3)coc2c1,EC50,[17],> 67.5 µM (inactive)
same,EC50,[18],> 67.5 µM (inactive)
CCOC(=O)N1CCN(C(=O)C[C@H]2C[C@@]3(C(=O)OC)C(=C[C@H](C(C)C)O[C@@H]3C3CC3)N(Cc3ccc(Cl)cc3Cl)C2=O)CC1,IC50,[13],> 69.5 µM (inactive)
same,IC50,[14],16.4 µM (inactive)
CN(C)CCNC(=O)c1cccc(-c2cnc3c(NC=O)cc(-c4cccc(C(F)(F)F)c4)cn23)c1,AC50,[19],54.8 µM (active)
same,AC50,[20],2.4 µM (active)
same,AC50,[7],9.07 µM (active)
same,EC50,[21],> 89.2 µM (inactive)
COc1ccccc1-c1nc(-c2ccc(Br)o2)no1,EC50,[17],> 67.5 µM (inactive)
same,EC50,[22],> 67.5 µM (inactive)
same,IC50,[23],> 67.5 µM (inactive)
same,EC50,[18],> 67.5 µM (inactive)
CC(C)=CC1C(C(=O)OCN2C(=O)C3=C(CCCC3)C2=O)C1(C)C (stereo not given) [TETRAMETHRIN],IC50,[24],> 20 µM (inactive)
same,IC50,[25],> 20 µM (inactive)
same,IC50,[26],> 20 µM (inactive)
same,IC50,[27],> 20 µM (inactive)
same,IC50,[28],> 20 µM (inactive)
same,IC50,[29],> 20 µM (inactive)
same,IC50,[30],> 20 µM (inactive)
C#CCOCCOCCOCCNc1nc(N2CCN(C(=O)Cn3cc(CC(C)O)nn3)CC2)nc(N2CCN(C(=O)[C@H](C)n3cc(CCCN=C(N)N)nn3)CC2)n1 (stereo not given in full),IC50,[16],6.8 µM (active)
O=C(Nc1ccc2c(c1)OCCO2)Nc1ccc2c(c1)OCO2,EC50,[22],> 67.6 µM (inactive)
same,IC50,[23],> 67.6 µM (inactive)
Cc1ccc2nc(-c3ccccc3)cc(O)c2c1,EC50,[31],1.14 µM (active)
same,EC50,[22],> 67.5 µM (inactive)
same,IC50,[23],> 67.5 µM (inactive)
same,EC50,[32],0.91 µM (active)
COc1ccc(C2CC(c3ccccc3)=NN2C(=O)CN2CCN(Cc3ccccc3)CC2)cc1 (stereo not given),IC50,[16],> 50 µM (not active)
